Measurements as given in the supplement of paper PMC13380429.

Columns and labels:
Settings in all cases: 72 h
Vero E6 [1] = test: cell viability relative to DMSO; higher = less toxic
U2OS [2] = test: as above
Calu-3 [3] = test: as above
HepG2 [4] = test: as above
Caco-2 [5] = test: as above
Vero E6 [6] = test: drug sensitivity score (DSS) for viability; higher = more toxic; extreme values may be limits of the assay
U2OS [7] = test: as above
Calu-3 [8] = test: as above
HepG2 [9] = test: as above
Caco-2 [10] = test: as above
Vero E6 [11] = test: relative viability EC50 (midpoint between 100% and the lowest measured viability); higher = less toxic
U2OS [12] = test: as above
Calu-3 [13] = test: as above
HepG2 [14] = test: as above
Caco-2 [15] = test: as above

Structure (SMILES) | cell viability (Vero E6 [1]; 1 nM) [%] | cell viability (Vero E6 [1]; 10 nM) [%] | cell viability (Vero E6 [1]; 100 nM) [%] | cell viability (Vero E6 [1]; 1000 nM) [%] | cell viability (Vero E6 [1]; 10000 nM) [%] | cell viability (U2OS [2]; 1 nM) [%] | cell viability (U2OS [2]; 10 nM) [%] | cell viability (U2OS [2]; 100 nM) [%] | cell viability (U2OS [2]; 1000 nM) [%] | cell viability (U2OS [2]; 10000 nM) [%] | cell viability (Calu-3 [3]; 1 nM) [%] | cell viability (Calu-3 [3]; 10 nM) [%] | cell viability (Calu-3 [3]; 100 nM) [%] | cell viability (Calu-3 [3]; 1000 nM) [%] | cell viability (Calu-3 [3]; 10000 nM) [%] | cell viability (HepG2 [4]; 1 nM) [%] | cell viability (HepG2 [4]; 10 nM) [%] | cell viability (HepG2 [4]; 100 nM) [%] | cell viability (HepG2 [4]; 1000 nM) [%] | cell viability (HepG2 [4]; 10000 nM) [%] | cell viability (Caco-2 [5]; 1 nM) [%] | cell viability (Caco-2 [5]; 10 nM) [%] | cell viability (Caco-2 [5]; 100 nM) [%] | cell viability (Caco-2 [5]; 1000 nM) [%] | cell viability (Caco-2 [5]; 10000 nM) [%] | drug sensitivity score (Vero E6 [6]) | drug sensitivity score (U2OS [7]) | drug sensitivity score (Calu-3 [8]) | drug sensitivity score (HepG2 [9]) | drug sensitivity score (Caco-2 [10]) | relative viability EC50 (Vero E6 [11]) [µM] | relative viability EC50 (U2OS [12]) [µM] | relative viability EC50 (Calu-3 [13]) [µM] | relative viability EC50 (HepG2 [14]) [µM] | relative viability EC50 (Caco-2 [15]) [µM]
O=C(Nc1ccccc1)OCC(CN1CCCCC1)OC(=O)Nc1ccccc1 (stereo not given) [diperodon] | 90.9 | 95.5 | 87 | 96.6 | 100 | 95.5 | 93.6 | 94.5 | 91.8 | 94.4 | 112 | 122 | 93.3 | 104 | 98.8 | 100 | 97.8 | 96.1 | 110 | 103 | 87.6 | 89.7 | 87.6 | 83 | 95.5 | 0 | 0 | 0 | 0 | 0 | > 10 | > 10 | > 10 | > 10 | > 10
Nc1nc(-c2ccc(Cl)c(Cl)c2)c(-c2ccncc2)s1 [CGH2466] | 87.1 | 95.3 | 100 | 93.9 | 93.9 | 96.5 | 99.9 | 96.3 | 100 | 90.1 | 109 | 100 | 107 | 95.7 | 107 | 96.5 | 104 | 117 | 106 | 112 | 91.8 | 86.1 | 102 | 99.7 | 95.9 | 0 | 0 | 0 | 0 | 0 | > 10 | > 10 | > 10 | > 10 | > 10
O=C(/C=C/c1ccc(O)c(O)c1)O[C@H](Cc1ccc(O)c(O)c1)C(=O)O [rosmarinic-acid] | 102 | 103 | 99.1 | 96.4 | 99.6 | 101 | 103 | 94.8 | 104 | 98.6 | 105 | 109 | 101 | 88.5 | 94.5 | 98.8 | 111 | 106 | 96.7 | 102 | 91.5 | 102 | 87.7 | 99.1 | 88 | 0 | 0 | 0.4 | 0 | 0 | > 10 | > 10 | > 10 | > 10 | > 10
COc1ccc(N(C(=O)Oc2c(C)cccc2C)c2ccnc(Nc3ccc(N4CCN(C)CC4)cc3)n2)c(OC)c1 [WH-4-023] | 95.4 | 97.4 | 96.7 | 93.7 | 84.8 | 101 | 96.8 | 98.1 | 107 | 99.8 | 93.3 | 104 | 95.8 | 104 | 89.8 | 92.7 | 91.9 | 93.2 | 100 | 101 | 101 | 89.4 | 102 | 114 | 103 | 0.2 | 0 | 0 | 0 | 0 | > 10 | > 10 | > 10 | > 10 | > 10
CC(C)NC(=N)NC(=N)Nc1ccc(Cl)cc1 [proguanil] | 97 | 91.9 | 87.3 | 100 | 94.7 | 98 | 93.3 | 98.6 | 97.1 | 98.3 | 101 | 90.2 | 96 | 93.7 | 95.4 | 94.8 | 100 | 91.8 | 106 | 101 | 101 | 93.5 | 108 | 105 | 106 | 0 | 0 | 0 | 0 | 0 | > 10 | > 10 | > 10 | > 10 | > 10
O=C(O)C(=O)CBr [3-bromopyruvate] | 96.7 | 96.6 | 96.9 | 96.7 | 92.8 | 97.7 | 99.4 | 98 | 102 | 104 | 102 | 98 | 105 | 98.9 | 94.2 | 104 | 92.1 | 100 | 99.7 | 101 | 95.5 | 97.1 | 96.5 | 97.2 | 97.9 | 0 | 0 | 0 | 0 | 0 | > 10 | > 10 | > 10 | > 10 | > 10
CC[N+](C)(CC)CC(=O)Nc1c(C)cccc1C [N-methyllidocaine-iodide] | 98.7 | 96.2 | 99.2 | 102 | 101 | 95.1 | 101 | 96.7 | 97.4 | 100 | 98.2 | 102 | 102 | 96.7 | 102 | 106 | 95.4 | 93.7 | 111 | 107 | 88 | 101 | 103 | 94.8 | 102 | 0 | 0 | 0 | 0 | 0 | > 10 | > 10 | > 10 | > 10 | > 10
C=CCc1ccc(O)c(-c2ccc(O)c(CC=C)c2)c1 [honokiol] | 95.7 | 98.9 | 97.7 | 95.4 | 107 | 94.4 | 95.1 | 99.3 | 99.4 | 88.9 | 104 | 111 | 94.4 | 96.6 | 97 | 108 | 109 | 109 | 93.2 | 88.4 | 93.8 | 94.3 | 102 | 90.1 | 90.9 | 0 | 0 | 0 | 0.2 | 0 | > 10 | > 10 | > 10 | > 10 | > 10
CN1C(C(=O)Nc2ccccn2)=C(O)c2ccccc2S1(=O)=O [piroxicam] | 93.1 | 101 | 94.4 | 93.5 | 114 | 98.5 | 94.9 | 99.3 | 95.9 | 101 | 99.8 | 95.5 | 101 | 96.8 | 105 | 92 | 107 | 92.5 | 105 | 115 | 93.6 | 96 | 104 | 100 | 100 | 0 | 0 | 0 | 0 | 0 | > 10 | > 10 | > 10 | > 10 | > 10
CC(=O)NS(=O)(=O)c1ccc(NC(=O)c2ccccc2C(=O)O)cc1 [phthalylsulfacetamide] | 102 | 109 | 98.2 | 104 | 102 | 98.8 | 94.6 | 103 | 99.2 | 102 | 100 | 102 | 96.8 | 108 | 101 | 102 | 104 | 91.6 | 105 | 101 | 91.3 | 98.4 | 94.2 | 96.4 | 94.3 | 0 | 0 | 0 | 0 | 0 | > 10 | > 10 | > 10 | > 10 | > 10
CCCCCCCCCCCCCCCCCC(=O)OC[C@@H](O)[C@H]1OC[C@H](O)[C@H]1O [sorbitan-monostearate] | 99.5 | 102 | 97.2 | 100 | 101 | 102 | 102 | 101 | 107 | 99.9 | 101 | 92.9 | 94.1 | 108 | 101 | 93.7 | 89.2 | 98.7 | 102 | 108 | 92.1 | 104 | 87.4 | 100 | 98.7 | 0 | 0 | 0 | 0 | 0 | > 10 | > 10 | > 10 | > 10 | > 10
CCN(CC)C(C)C(=O)c1ccccc1 (stereo not given) [amfepramone] | 92.3 | 102 | 106 | 106 | 86.8 | 100 | 95.3 | 98.1 | 95.2 | 98.6 | 109 | 85.5 | 93.6 | 93.7 | 103 | 106 | 102 | 100 | 96.6 | 101 | 117 | 95.9 | 103 | 102 | 128 | 0 | 0 | 0 | 0 | 0 | > 10 | > 10 | > 10 | > 10 | > 10
COc1cc2c(cc1OC)[C@H](C)NCC2 [Isoquinoline,-6,7-dimethoxy-1-methyl-1,2,3,4-tetrahydro,] | 97.3 | 96.5 | 96.8 | 96.5 | 106 | 102 | 103 | 104 | 90.4 | 102 | 109 | 104 | 101 | 109 | 96.1 | 100 | 95.6 | 99.9 | 97.4 | 101 | 92.5 | 89.1 | 99.4 | 92.3 | 112 | 0 | 0 | 0 | 0 | 0 | > 10 | > 10 | > 10 | > 10 | > 10
Cc1cnc(C(=O)N[C@H]2CCCCC/C=C\[C@@H]3C[C@@]3(C(=O)NS(=O)(=O)C3CC3)NC(=O)[C@@H]3C[C@@H](Oc4nc5ccccc5c5ccccc45)CN3C2=O)cn1 [paritaprevir] | 99.8 | 93.9 | 97 | 94 | 98.8 | 105 | 105 | 107 | 94.8 | 96.4 | 110 | 108 | 107 | 99.9 | 102 | 108 | 96.8 | 105 | 94.7 | 109 | 110 | 94.8 | 103 | 95 | 99.1 | 0 | 0 | 0 | 0 | 0 | > 10 | > 10 | > 10 | > 10 | > 10
